Patent US20150164833A1, “NUTRITIONAL COMPOSITION CONTAINING A NEUROLOGIC COMPONENT OF URSOLIC ACID AND USES THEREOF” (MEAD JOHNSON NUTRITION COMPANY, priority 2013, published 2015)

Test system: human adipose-derived stem cells (hADSCs)
Assay: Neurogenesis (neuronal differentiation) of hADSCs in serum-free neuronal differentiation medium, phase contrast microscopy
Type: cell-based
Procedure: This example describes the neurogenesis of hADSCs by ursolic acid as compared to DHA (positive control) and hADSCs cultured in the absence of either ursolic acid and DHA (negative control). Ursolic acid was purchased from Sigma-Aldrich (Cat. No. U6753) and diluted in 95% ethanol to a concentration of […], giving a clear faint yellow stick solution that was then stored at −20° C.
hADSCs were purchased from Invitrogen®, also known as Life Technologies, of Carlsbad, Calif., U.S.A., and were cultured as near confluent monolayers in 100 mm culture plates within a maintenance medium consisting of Complete MesenPro RS™ medium with growth supplement and L-glutamine, also obtained from Invitrogen®. The process of culturing, passage, and seeding the hADSCs is described below. The cells were then subjected to removal and reseeded at a density of 0.5-1×10^4 cells/mL onto a 24-well culture plate with poly-L-ornithine and bovine plasma fibronectin coating. The culture medium is the same as the aforementioned maintenance medium. Three days after seeding, the culture medium was changed to a neuronal differentiation medium.
The subculture of hADSCs was performed when cell culture reached confluence. […]

C[C@H]1[C@H](C)CC[C@]2(C(=O)O)CC[C@]3(C)C(=CC[C@@H]4[C@@]5(C)CC[C@H](O)C(C)(C)[C@@H]5CC[C@]43C)[C@H]12 [ursolic acid, 3-beta-3-hydroxy-urs-12-ene-28-oic-acid]
neurogenesis of hADSCs (cells undergoing neurogenesis) (30-120 μg/mL ursolic acid, phase contrast microscopy at 24, 48 and 96 hours): A large percentage of cells underwent neurogenesis | neuronal morphology of hADSCs (ursolic acid at 60 μg/mL, phase contrast microscopy, FIG. 1C): neuronal morphological changes and neurite outgrowth
